Legend:
[1] = target: Cathepsin B (Bos taurus, UniProt P07688); assay: Ability to block cathepsin B-catalyzed hydrolysis of the fluorogenic substrate Z-Arg-Arg-NHMec
[2] = target: T1, Procathepsin L (Homo sapiens, UniProt P07711); assay: Ability to block cathepsin L-catalyzed hydrolysis of the fluorogenic substrate Z-Phe-Arg-NHMec
[3] = target: T1, Procathepsin L; assay: Ability to block cathepsin L-catalyzed hydrolysis of the fluorogenic substrate Z-Phe-Arg-NHMec, at 100 uM conc.; no inhibition

T1 sequence (P07711 whole entry): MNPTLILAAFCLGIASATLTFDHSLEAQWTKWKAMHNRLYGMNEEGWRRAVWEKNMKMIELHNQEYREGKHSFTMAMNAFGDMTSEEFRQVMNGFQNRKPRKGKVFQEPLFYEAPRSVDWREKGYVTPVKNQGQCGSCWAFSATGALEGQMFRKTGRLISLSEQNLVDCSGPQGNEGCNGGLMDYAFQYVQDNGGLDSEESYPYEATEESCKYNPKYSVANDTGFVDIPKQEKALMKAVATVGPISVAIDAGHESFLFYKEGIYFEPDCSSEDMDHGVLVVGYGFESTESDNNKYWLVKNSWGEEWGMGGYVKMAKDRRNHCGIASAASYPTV

| SMILES | Ki [1] | Ki [2] | Ki [3] |
| --- | --- | --- | --- |
| CC(=O)N[C@@H](CC(C)C)C(=O)N[C@@H](CC(C)C)C(=O)N[C@@H](CCCN=C(N)N)C(=O)C=O | 1250 nM | 970 nM |  |
| CCCCOc1ccc(C[C@H](NC(=O)[C@H](Cc2ccccc2)NC(=O)OCc2ccccc2)C(=O)C=O)cc1 | 214 nM | 0.6 nM |  |
| CC(=O)N[C@@H](CCCN=C(N)N)C(=O)N[C@@H](CCCN=C(N)N)C(=O)C=O | 640 nM |  | Not Active |
| N=C(N)NCCC[C@H](NC(=O)[C@H](Cc1ccccc1)C(=O)OCc1ccccc1)C(=O)C=O | 40 nM | 90 nM |  |

From ChEMBL document CHEMBL1133264, “Development of peptidyl alpha-keto-beta-aldehydes as new inhibitors of cathepsin L--comparisons of potency and selectivity profiles with cathepsin B” (Bioorg Med Chem Lett, 2000)
